# Laboratory results reported in US20060069132A1, “Azolecarboxamide herbicides” (priority 2004, published 2006).
# What was measured:
# morningglory [1] = assay: Test B pre-/postemergence herbicide test; format: in vivo, Ipomoea coccinea
# Method in brief: (§1)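 Greenhouse pot assay with simultaneous preemergence (treated seed) and postemergence (2–18 cm seedlings) applications of surfactant-containing, non-phytotoxic solvent formulations. Response scored visually 13–15 days later on a 0–100 scale, 100 meaning complete control.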
# redroot pigweed = assay: Test A pre-/postemergence herbicide test; format: in vivo, Amaranthus retroflexus; conditions: for Plant response rating, Pigweed: Postemergence; for Pigweed plant response rating: Preemergence
# Method in brief: (§2)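 Seeds sown in sandy loam received a preemergence directed soil spray of compound in non-phytotoxic solvent with surfactant; postemergence plants (2–10 cm, one- to two-leaf stage) were sprayed to runoff at the same time. After ~10 days in greenhouse, injury was rated visually versus untreated controls (0 = no effect, 100 = complete control).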
# cocklebur = assay: Test B pre-/postemergence herbicide test; format: in vivo, Xanthium strumarium
# Method in brief: as §1
# rice [2] = assay: Test B pre-/postemergence herbicide test; format: in vivo, Oryza sativa; conditions: preemergence, 125 g ai/ha; 0 to 100 scale, 0 is no effect, 100 is complete control
# Method in brief: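 Evaluation is visual, comparing treated with control plants on a scale where 0 means no effect and 100 means full control. Treatments were preemergence, or postemergence on seedlings 2–18 cm tall, and held 13–15 days in the greenhouse.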
# corn = assay: Test B pre-/postemergence herbicide test; format: in vivo, Zea mays
# Method in brief: (§3)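 Flooded paddy rice and barnyardgrass were treated at the 2-leaf stage; upland plantings received compound either on sown seed or on 1- to 4-leaf seedlings. All were kept 13–15 days in a greenhouse and scored visually, 0–100, relative to untreated plants.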
# giant foxtail [3] = assay: Test B pre-/postemergence herbicide test; format: in vivo, Setaria faberi
# Method in brief: as §3
# rice [4] = assay: Test B flooded paddy test; format: in vivo, Oryza sativa; conditions: 1000 g ai/ha, visual rating, scale 0 to 100 (0 no effect, 100 complete control), 13 to 15 days
# Method in brief: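 After treating 2-leaf paddy plants or 2–18 cm postemergence plants (1 to 4 leaves) with formulated chemical, researchers kept them in a greenhouse for 13–15 days. Effects were judged visually versus controls: 0 indicates none, 100 total control.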
# lambsquarters = assay: Test B pre-/postemergence herbicide test; format: in vivo, Chenopodium album
# Method in brief: as §3
# large crabgrass [5] = assay: Test A pre-/postemergence herbicide test; format: in vivo, Digitaria sanguinalis; conditions: for Plant response rating, Crabgrass, Large: Postemergence; for Crabgrass, Large plant response rating: Preemergence
# Method in brief: as §2
# ducksalad = assay: Test B flooded paddy test; format: in vivo, Heteranthera limosa; conditions: 1000 g ai/ha, visual rating, scale 0 to 100 (0 no effect, 100 complete control), 13 to 15 days
# Method in brief: (§4)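 Greenhouse test; postemergence application to plants at 1–4 leaves (2–18 cm); paddy species at 2 leaves; evaluated visually vs controls at 13–15 days; scale 0–100 (100 = complete control).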
# velvetleaf [6] = assay: Test B pre-/postemergence herbicide test; format: in vivo, Abutilon theophrasti
# Method in brief: as §3
# blackgrass = assay: Test B postemergence herbicide test; format: in vivo, Alopecurus myosuroides; conditions: scale 0 (no effect) to 100 (complete control)
# Method in brief: as §4
# pigweed = assay: Test B pre-/postemergence herbicide test; format: in vivo, Amaranthus retroflexus
# Method in brief: as §3
# barnyardgrass [7] = assay: Test B flooded paddy test; format: in vivo, Echinochloa crus-galli; conditions: 1000 g ai/ha, visual rating, scale 0 to 100 (0 no effect, 100 complete control), 13 to 15 days
# Method in brief: as §4
# Surinam grass = assay: Test B pre-/postemergence herbicide test; format: in vivo, Urochloa decumbens
# Method in brief: as §3
# morningglory [8] = assay: Test A pre-/postemergence herbicide test; format: in vivo, Ipomoea spp.; conditions: for Plant response rating, Morningglory: Postemergence; for Morningglory plant response rating: Preemergence
# Method in brief: as §2
# wheat = assay: Test B postemergence herbicide test; format: in vivo, Triticum aestivum; set-up: key to Wheat plant response rating: 0 = no effect, 100 = complete control; conditions: scale 0 (no effect) to 100 (complete control)
# Method in brief: (§5)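 Read-out: visual comparison with controls, scored 0 to 100, where 100 means complete control and 0 no effect. Formulated chemicals were applied postemergence to plants 2–18 cm tall (1- to 4-leaf), or to flooded-paddy plants at the 2-leaf stage, then held 13 to 15 days under glass.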
# barnyardgrass [9] = assay: Test A pre-/postemergence herbicide test; format: in vivo, Echinochloa crus-galli; conditions: for Plant response rating, Barnyardgrass: Postemergence; for Barnyardgrass plant response rating: Preemergence
# Method in brief: as §2
# wild oat = assay: Test B postemergence herbicide test; format: in vivo, Avena fatua; conditions: scale 0 (no effect) to 100 (complete control)
# Method in brief: as §5
# giant foxtail [10] = assay: Test A pre-/postemergence herbicide test; format: in vivo, Setaria faberi; conditions: for Plant response rating, Foxtail, Giant: Postemergence; for Foxtail, Giant plant response rating: Preemergence
# Method in brief: as §2
# large crabgrass [11] = assay: Test B pre-/postemergence herbicide test; format: in vivo, Digitaria sanguinalis
# Method in brief: as §3
# barnyardgrass [12] = assay: Test B pre-/postemergence herbicide test; format: in vivo, Echinochloa crus-galli
# Method in brief: as §1
# velvetleaf [13] = assay: Test A pre-/postemergence herbicide test; format: in vivo, Abutilon theophrasti; conditions: for Velvetleaf plant response rating: Preemergence, visual rating, 0 to 100 scale (0 no effect, 100 complete control)
# Method in brief: as §2
# [14] = test system: small flower umbrella sedge; assay: Test B flooded paddy test; format: in vivo, Cyperus difformis; conditions: 1000 g ai/ha, visual rating, scale 0 to 100 (0 no effect, 100 complete control), 13 to 15 days
# Method in brief: as §4
# [15] = Postemergence, 500 g ai/ha, visual rating after 13 to 15 days, scale 0 (no effect) to 100 (complete control)
# [16] = postemergence, 125 g ai/ha, visual rating, scale 0 (no effect) to 100 (complete control)
# [17] = preemergence, 125 g ai/ha, 0 to 100 scale, 0 is no effect, 100 is complete control
# [18] = 500 g ai/ha, 0 to 100 scale, 0 no effect, 100 complete control
# [19] = 2000 g ai/ha, 0 to 100 scale, 0 no effect, 100 complete control
# [20] = 500 g ai/ha, visual rating, 0 to 100 scale (0 no effect, 100 complete control)
# [21] = Preemergence, 500 g ai/ha, scale 0 to 100
# [22] = Postemergence, 500 g ai/ha, visual rating after 13 to 15 days
# [23] = postemergence, 125 g ai/ha, visual rating
smiles,measurement,setting,value
CCn1nc(C(C)(C)C)cc1C(=O)Nc1cc(C(=O)OC(C)(C)C)ccc1F [Compound 71],"Plant response rating, Morningglory",morningglory [1]; [15],0
same,Morningglory plant response rating,morningglory [1]; [16],0
same,"Plant response rating, Morningglory",morningglory [1]; [17],0
same,"Plant response rating, Pigweed",redroot pigweed; [18],0
same,"Plant response rating, Pigweed",redroot pigweed; [19],0
same,Pigweed plant response rating,redroot pigweed; [20],0
same,Pigweed plant response rating,redroot pigweed; [19],0
same,"Plant response rating, Cocklebur",cocklebur; [15],0
same,Cocklebur plant response rating,cocklebur; [21],0
same,Cocklebur plant response rating,cocklebur; [16],0
same,"Plant response rating, Cocklebur",cocklebur; [17],0
same,"Plant response rating, Rice",rice [2],0
same,"Plant response rating, Corn",corn; [15],10
same,Corn plant response rating,corn; [21],0
same,Corn plant response rating,corn; [16],0
same,"Plant response rating, Corn",corn; [17],0
same,"Plant response rating, Foxtail, Giant",giant foxtail [3]; [15],10
same,"Foxtail, Giant plant response rating",giant foxtail [3]; [21],0
same,"Foxtail, Giant plant response rating",giant foxtail [3]; [16],0
same,"Plant response rating, Foxtail, Giant",giant foxtail [3]; [17],0
same,Rice plant response rating,rice [4],0
same,"Plant response rating, Lambsquarters",lambsquarters; [15],20
same,Lambsquarters plant response rating,lambsquarters; [16],0
same,"Plant response rating, Lambsquarters",lambsquarters; [17],0
same,"Plant response rating, Crabgrass, Large",large crabgrass [5]; [18],0
same,"Plant response rating, Crabgrass, Large",large crabgrass [5]; [19],0
same,"Crabgrass, Large plant response rating",large crabgrass [5]; [20],0
same,"Crabgrass, Large plant response rating",large crabgrass [5]; [19],0
same,Ducksalad plant response rating,ducksalad,0
same,"Plant response rating, Velvetleaf",velvetleaf [6]; [15],0
same,Velvetleaf plant response rating,velvetleaf [6]; [16],0
same,"Plant response rating, Velvetleaf",velvetleaf [6]; [17],0
same,"Plant response rating, Blackgrass",blackgrass; [22],0
same,Blackgrass plant response rating,blackgrass; [23],0
same,"Plant response rating, Pigweed",pigweed; [15],20
same,Pigweed plant response rating,pigweed; [16],0
same,"Plant response rating, Pigweed",pigweed; [17],0
same,Barnyardgrass plant response rating,barnyardgrass [7],0
same,"Plant response rating, Surinam Grass",Surinam grass; [15],10
same,Surinam Grass plant response rating,Surinam grass; [16],0
same,"Plant response rating, Surinam Grass",Surinam grass; [17],0
same,"Plant response rating, Morningglory",morningglory [8]; [18],0
same,"Plant response rating, Morningglory",morningglory [8]; [19],0
same,Morningglory plant response rating,morningglory [8]; [20],0
same,Morningglory plant response rating,morningglory [8]; [19],0
same,"Plant response rating, Wheat",wheat; [22],0
same,Wheat plant response rating,wheat; [23],0
same,"Plant response rating, Barnyardgrass",barnyardgrass [9]; [18],0
same,"Plant response rating, Barnyardgrass",barnyardgrass [9]; [19],0
same,Barnyardgrass plant response rating,barnyardgrass [9]; [20],0
same,Barnyardgrass plant response rating,barnyardgrass [9]; [19],0
same,"Plant response rating, Oat, Wild",wild oat; [22],0
same,"Oat, Wild plant response rating",wild oat; [23],0
same,"Plant response rating, Foxtail, Giant",giant foxtail [10]; [18],0
same,"Plant response rating, Foxtail, Giant",giant foxtail [10]; [19],0
same,"Foxtail, Giant plant response rating",giant foxtail [10]; [20],0
same,"Foxtail, Giant plant response rating",giant foxtail [10]; [19],0
same,"Plant response rating, Crabgrass, Large",large crabgrass [11]; [15],10
same,"Crabgrass, Large plant response rating",large crabgrass [11]; [21],0
same,"Crabgrass, Large plant response rating",large crabgrass [11]; [16],0
same,"Plant response rating, Crabgrass, Large",large crabgrass [11]; [17],0
same,"Plant response rating, Barnyardgrass",barnyardgrass [12]; [15],10
same,Barnyardgrass plant response rating,barnyardgrass [12]; [21],0
same,Barnyardgrass plant response rating,barnyardgrass [12]; [16],0
same,"Plant response rating, Barnyardgrass",barnyardgrass [12]; [17],0
same,"Plant response rating, Velvetleaf","velvetleaf [13]; Postemergence, 2000 g ai/ha, 0 to 100 scale, 0 no effect, 100 complete control",0
same,Velvetleaf plant response rating,velvetleaf [13]; 500 g ai/ha,0
same,Velvetleaf plant response rating,velvetleaf [13]; 2000 g ai/ha,0
same,"Sedge, Umbrella plant response rating",[14],0
